In patent US10220069B2, “Compositions and methods for treating diabetes” (THE JOHNS HOPKINS UNIVERSITY, priority 2014, dated 2019):
Values belong to the molecule of their own block, whether it stands above or below them.

Legend:
[1] = target: T1, receptor for the incretin hormone glucagon-like peptide-1 (GLP-1) (Mus musculus, UniProt O35659); experiment: Islet cAMP synthesis in response to exendin-4; format: cell-based
T1 construct: from tissue; host or cells: isolated mouse pancreatic islets (Kiss1Rfl/fl and Panc-ΔKiss1R)
T1 sequence (O35659 22-463): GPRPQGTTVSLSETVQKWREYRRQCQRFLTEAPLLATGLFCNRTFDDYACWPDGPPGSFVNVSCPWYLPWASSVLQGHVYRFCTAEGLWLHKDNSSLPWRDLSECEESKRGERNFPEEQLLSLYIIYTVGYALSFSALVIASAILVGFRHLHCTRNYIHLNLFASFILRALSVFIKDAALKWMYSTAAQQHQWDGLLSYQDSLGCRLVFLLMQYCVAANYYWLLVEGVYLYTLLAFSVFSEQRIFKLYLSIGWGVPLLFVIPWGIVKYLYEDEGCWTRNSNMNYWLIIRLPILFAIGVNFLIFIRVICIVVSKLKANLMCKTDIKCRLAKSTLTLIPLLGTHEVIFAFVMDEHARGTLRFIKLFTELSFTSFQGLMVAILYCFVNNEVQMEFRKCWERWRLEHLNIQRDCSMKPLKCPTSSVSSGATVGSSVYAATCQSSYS
Protocol: (§1) For studies with plasma incubation, a final concentration of plasma was 1% or 10% (vol/vol). […] Islets were taken in 0.18M HCL/70% ethanol to extract and measure total islet insulin content. cAMP concentrations were measured in islet extracts using ELISA (Enzo Life Sciences).

islets = experiment: Islets incubated 48 hours with K54: cAMP dependent, ER stress, oxidative stress and NLRP3 inflammasome markers (Table 5); format: cell-based, mouse; conditions: K54 10 nM
Protocol: Kisspeptin1 Causes ERS and UPR in Islets Independently of Hyperglycemia. […] Because reduction in cAMP signaling in β-cells reduces IRS2 and PDX1 and provokes ERS/UPR and apoptosis 11,12, we examined whether kisspeptin action on β-cells may provoke ERS/UPR. Islets were incubated in 10 nM […]. To control for stimulus for increased insulin biosynthesis and potential UPR response, we incubated islets at 5 and 10 mM glucose. […] Incubation at 10 mM glucose stimulated oxidative stress ERS and NLRP-I markers, but less pronounced than […] at 5 mM glucose. Treatment with […] at high (10 mM) glucose further augmented ERS/UPR, oxidative stress and NLRP3-I markers. Thus, kisspeptin treatment even at normoglycemia stimulates in islets the ERS/UPR response more potently than hyperglycemia (glucose 10 mM) and […] aggravates ERS/UPR induced by hyperglycemia only (Table 5).

Kiss1R [2] = target: T2, Kiss1R (Mus musculus, UniProt Q91V45); experiment: Islet cAMP concentrations (ELISA) in response to kisspeptin; format: cell-based
T2 construct: Mouse brain, mouse islets, insulinoma cells, and human islets express Kiss1R; from tissue; host or cells: isolated mouse pancreatic islets (WT / Kiss1Rfl/fl, C57Bl/6 background)
T2 sequence (Q91V45 whole entry): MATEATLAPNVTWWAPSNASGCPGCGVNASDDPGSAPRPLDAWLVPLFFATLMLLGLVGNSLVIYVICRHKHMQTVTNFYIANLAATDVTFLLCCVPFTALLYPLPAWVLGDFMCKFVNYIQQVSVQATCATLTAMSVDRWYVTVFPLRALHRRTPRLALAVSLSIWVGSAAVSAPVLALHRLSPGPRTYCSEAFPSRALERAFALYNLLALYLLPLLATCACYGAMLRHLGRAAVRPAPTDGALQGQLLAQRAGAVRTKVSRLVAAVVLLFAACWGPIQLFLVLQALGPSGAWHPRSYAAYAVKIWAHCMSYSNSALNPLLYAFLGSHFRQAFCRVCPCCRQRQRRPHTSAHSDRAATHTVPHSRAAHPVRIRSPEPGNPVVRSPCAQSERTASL
Protocol: as §1

Kiss1R [3] = target: T2, Kiss1R; experiment: Glucose stimulated insulin secretion (GSIS) from cultured mouse islets, static incubation; format: cell-based; set-up: GSIS at very high kisspeptin concentration: dose or concentration left out as unconfirmed
Protocol: Isolated Islet Studies. Islet isolation was performed by collagenase digestion, gradient centrifugation, and three rounds of microscope-assisted manual picking of islets. Static incubation studies were conducted as previously described with 20 handpicked, equal-sized islets were studied in each group (Song et al., 2011). After overnight culture (37_C, 5% CO2, and 95% O2 in humid chamber) of isolated islets in RPMI 1640 (Mediatech) containing 5 mM glucose, 1% each Na-Pyruvate, HEPES, Penicillin/Streptomycin, and 0.2% BSA, islets were switched to either 10 or 20 mM glucose containing RPMI 1640. Where indicated, Kisspeptin-10 (0-100 nM, and […]), E4 (10 nM), or vehicle (PBS) was added. After 30 min incubation glucose concentrations, supernatant was taken for insulin measurements and pelleted islets were taken in acid ethanol (0.18M HCl in 70% ethanol) for insulin measurements in islets (ELISA, Alpco). Islet protein concentration was measured using the BCA method (Thermo Fisher).
Islet studies. Islet isolation was performed by collagenase digestion, gradient centrifugation and three rounds of microscope-assisted manual picking of islets (Song et al., 2011). Static incubation studies were conducted as previously described with 20 hand-picked equalized islets were studied in each group. Islets were cultured in RPMI 1640 medium (Invitrogen) containing 10 or 20 mM D-glucose (as indicated) and supplemented with 0.2% bovine serum albumin, 1% each Na-Pyruvate, HEPES, Penicillin/Streptomycin. After 30 min incubation glucose concentrations, supernatant was taken for insulin measurements and pelleted islets were taken in acid ethanol (0.18M HCl in 70% ethanol) for insulin measurements in islets (Alpco). Islet protein concentration was measured using the BCA method (Thermo Fisher).
Insulin secretion during static incubation. After overnight culture (37 C, 5% CO2, 95% O2 in humid chamber) of isolated islets in RPMI 1640 (Mediatech) containing 5 mM glucose, 1% each Na-Pyruvate, HEPES, Penicillin/Streptomycin and 0.2% bovine serum albumin (BSA), islets were switched to either 10 or 20 mM glucose containing RPMI 1640. […] After 30 min incubation glucose concentrations, supernatant was taken for insulin measurements and pelleted islets were taken in acid ethanol (0.18M HCl in 70% ethanol) for insulin measurements in islets (ELISA, Alpco). Islet protein concentration was measured using the BCA method (Thermo Fisher).

Kiss1R [4] = target: T2, Kiss1R; experiment: ipGTT with ip coinjection of kisspeptin and glucose; format: in vivo
Protocol: Intraperitoneal glucose tolerance (ipGTT) and insulin tolerance (ipITT) tests were performed according to standard protocols (Song et al., 2013; Song et al., 2011). After 9 am-3 pm fasting, animals were administered 20% D-glucose (via ip injection), insulin 0.5 U/kg i.p. (Novolin), glucagon (100 μg/kg i.p. (Sigma)). […] Plasma for glucagon measurements was drawn from mice in the fed state at 9 am, unless otherwise noted for fasting studies. Plasma glucagon (Alpco) and kisspeptin1 (USCN Life Sciences Inc. E92559Ra) were measured by ELISA according to manufacturer's instructions including dilution of samples.

Kiss1R [5] = target: T2, Kiss1R; experiment: Islet perifusion assay, first and second phase GSIS; format: cell-based; conditions: isolated mouse islets
Protocol: Perifusion studies were performed as previously published (Song et al., 2013; Song et al., 2011) with slight modifications. The perifusate was Krebs ringer buffer (KRB) (37 C, pH 7.4) containing 0.2% BSA fraction V, 24 mM sodium bicarbonate and was gassed with 95% air and 5% CO2. Perifusion (1 ml/min) occurred for the first 30 minutes with a KRB containing 3 mM glucose for equilibration, after which time the perifusate was collected in 1 ml fractions. After additional 10 minutes, glucose in the perifusate was increased to 10 mM. […] Insulin was measured in selected individual eluent fractions at 30, 35, 40, 42, 45, 50, 55, 60 min (Alpco ELISA). The first 10 minutes after increasing glucose was defined as first phase, the period thereafter was defined as second phase of insulin secretion. At the end of the perifusion protocol, 30 mM KCL was administered into the perifusate to depolarize β-cells. Insulin levels were normalized to total islet protein, which was spectrophotometrically determined (Eppendorf) after completion of the perifusion protocol.

Gcgr = target: T3, Gcgr (Mus musculus, UniProt Q61606); experiment: Gcgr antagonist GAI or inactive analog GAC 60 min before ipGTT in HFD and Lepr db/db mice; format: in vivo
T3 construct: endogenous in cells; host or cells: live mice (WT, Gcgrfl/fl, HFD-fed C57Bl/6, Lepr db/db); hepatic receptor
T3 sequence (Q61606 27-485): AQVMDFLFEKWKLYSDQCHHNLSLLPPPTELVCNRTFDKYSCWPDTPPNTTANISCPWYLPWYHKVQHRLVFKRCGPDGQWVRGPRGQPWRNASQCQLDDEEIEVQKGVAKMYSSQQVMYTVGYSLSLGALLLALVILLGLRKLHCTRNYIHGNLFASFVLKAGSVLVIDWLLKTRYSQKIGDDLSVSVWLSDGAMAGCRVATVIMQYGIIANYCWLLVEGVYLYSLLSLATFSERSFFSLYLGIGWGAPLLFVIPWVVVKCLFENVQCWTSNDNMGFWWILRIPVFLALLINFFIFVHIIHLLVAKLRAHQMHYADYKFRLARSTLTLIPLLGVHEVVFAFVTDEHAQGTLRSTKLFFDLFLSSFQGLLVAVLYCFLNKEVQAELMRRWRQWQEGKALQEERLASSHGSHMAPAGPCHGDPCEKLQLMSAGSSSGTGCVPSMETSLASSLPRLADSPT
Protocol: Intraperitoneal glucose tolerance (ipGTT) and insulin tolerance (ipITT) tests were performed according to standard protocols (Song et al., 2013; Song et al., 2011). After 9 am-3 pm fasting, animals were administered 20% D-glucose (via ip injection), insulin 0.5 U/kg i.p. (Novolin), glucagon (100 μg/kg i.p. (Sigma)). […] The glucagon receptor antagonist GAI (N-(3-Cyano-6-(1,1-dimethylpropyl)-4,5,6,7-tetrahydro-1-benzothien-2-yl)-2-ethylbutanamide (Qureshi et al., 2004) and its non-active analogue were administered (50 mg/kg i.p. in DMSO) in HFD fed and Lepr^db/db mice 60 min before i. GTT. Intraperitoneal pyruvate converstion (1 g/kg i.p.) test (ipPCT) in ΔL-Prkar1a mice was performed in the fed state (9 am) to avoid any confounding effects of fasting-induced elevated endogenous glucagon levels. Tail-vein blood was collected at the indicated times in figures for glucose and insulin measurements. Serum insulin was measured using mouse magnetic bead panel (Millipore, Luminex). Plasma for glucagon measurements was drawn from mice in the fed state at 9 am, unless otherwise noted for fasting studies. Plasma glucagon (Alpco) and kisspeptin1 (USCN Life Sciences Inc. E92559Ra) were measured by ELISA according to manufacturer's instructions including dilution of samples.
Liver Kiss1 Upregulation is Linked to Hyperglucagonemia in DM.

[6] = Kiss1Rfl/fl and Panc-DKiss1R islets

Molecule: exendin-4 [E4]
- islet cAMP synthesis [1, 6]: stimulates cAMP synthesis
- reversal of K10-reduced cAMP production ([1]; isolated WT mouse islets treated with K10): partially reversed

- Catalase (Oxidative stress) (islets; Hyperglycemia Glucose 10 mM): 8.8 ± 0.5
- Catalase (Oxidative stress) (islets; Normoglycemia Glucose 5 mM): 6.2 ± 0.6
- islet cAMP production in response to exendin-4 (E4) (Kiss1R [2]; Kiss1Rfl/fl (WT) islets): impaired islet cAMP production
- islet cAMP concentrations (Kiss1R [2]; WT mouse islets, 10 mM glucose, 10 nM): lower cAMP concentrations
- baseline and E4-induced cAMP concentrations in Panc-DKiss1R islets (Kiss1R [2]; islets lacking Kiss1R): not affected
- lowest concentration suppressing GSIS (Kiss1R [3]; Kiss1Rfl/fl mouse islets, serum-free media, 10 or 20 mM glucose): 0.1 nM
- E4-potentiated GSIS (Kiss1R [3]; mouse islets cultured at 10 mM glucose, static incubation): dose-dependently suppressed
- in vivo GSIS in control (Kiss1rfl/fl, WT) mice (Kiss1R [4]; 10 nmol ip with glucose during ipGTT): suppressed GSIS
- in vivo GSIS in Panc-DKiss1R mice (Kiss1R [4]; 10 nmol ip, mice lacking pancreas Kiss1R): did not affect GSIS
- E4-potentiated GSIS, first and second phase (Kiss1R [5]): suppressed
- first (0-10 min after glucose stimulation) and second phases of GSIS (Kiss1R [5]; 10 mM glucose): suppressed
Molecule: Gly-Thr-Ser-Leu-Ser-Pro-Pro-Pro-Glu-Ser-Ser-Gly-Ser-Arg-Gln-Gln-Pro-Gly-Leu-Ser-Ala-Pro-His-Ser-Arg-Gln-Ile-Pro-Ala-Pro-Gln- Gly-Ala-Val-Leu-Val-Gln-Arg-Glu- Lys-Asp-Leu-Pro-Asn-Tyr-Asn-Trp-Asn-Ser-Phe-Gly-Leu-Arg-Phe-NH2 [K54]
- ATF5 (NLRP3 Inflammasome) (islets; Hyperglycemia Glucose 10 mM): 1.9 ± 0.4
- CHOP (ER stress) (islets; Hyperglycemia Glucose 10 mM): 2.2 ± 0.5
- IL-1β (NLRP3 Inflammasome) (islets; Hyperglycemia Glucose 10 mM): 1.9 ± 0.2
- IRS2 (cAMP dependent) (islets; Hyperglycemia Glucose 10 mM): 0.6 ± 0.2
- PDI (ER stress) (islets; Hyperglycemia Glucose 10 mM): 1.8 ± 0.3
- PDX1 (cAMP dependent) (islets; Hyperglycemia Glucose 10 mM): 0.5 ± 0.3
- SOD1 (Oxidative stress) (islets; Hyperglycemia Glucose 10 mM): 3.2 ± 0.3
- SOD2 (Oxidative stress) (islets; Hyperglycemia Glucose 10 mM): 2.4 ± 0.4
- Spliced XBP-1 (ER stress) (islets; Hyperglycemia Glucose 10 mM): 2.1 ± 0.4
- TXNIP (NLRP3 Inflammasome) (islets; Hyperglycemia Glucose 10 mM): 5.5 ± 0.3
- Total XBP-1 (ER stress) (islets; Hyperglycemia Glucose 10 mM): 1.5 ± 0.3
- ATF5 (NLRP3 Inflammasome) (islets; Normoglycemia Glucose 5 mM): 1.4 ± 0.4
- CHOP (ER stress) (islets; Normoglycemia Glucose 5 mM): 1.9 ± 0.4
- IL-1β (NLRP3 Inflammasome) (islets; Normoglycemia Glucose 5 mM): 1.7 ± 0.3
- IRS2 (cAMP dependent) (islets; Normoglycemia Glucose 5 mM): 0.5 ± 0.3
- PDI (ER stress) (islets; Normoglycemia Glucose 5 mM): 1.4 ± 0.4
- PDX1 (cAMP dependent) (islets; Normoglycemia Glucose 5 mM): 0.6 ± 0.2
- SOD1 (Oxidative stress) (islets; Normoglycemia Glucose 5 mM): 2.1 ± 0.4
- SOD2 (Oxidative stress) (islets; Normoglycemia Glucose 5 mM): 1.9 ± 0.3
- Spliced XBP-1 (ER stress) (islets; Normoglycemia Glucose 5 mM): 1.8 ± 0.5
- TXNIP (NLRP3 Inflammasome) (islets; Normoglycemia Glucose 5 mM): 4.8 ± 1.1
- Total XBP-1 (ER stress) (islets; Normoglycemia Glucose 5 mM): 1.4 ± 0.3
- GSIS at very high kisspeptin concentration (Kiss1R [3]; [6]): GSIS stimulation from both Kiss1Rfl/fl and Panc-DKiss1R islets
- GSIS from Panc-DKiss1R islets (Kiss1R [3]; islets lacking Kiss1R, nanomolar concentrations): impervious to K54-mediated GSIS suppression
- GSIS from Kiss1Rfl/fl (WT) mouse islets (Kiss1R [3]; static incubation, nanomolar concentrations (0-100 nM), 10 or 20 mM glucose): suppressed GSIS in a dose-dependent manner
- glucose tolerance in WT mice (Kiss1R [4]; acute administration, 10 nmol ip): impaired glucose tolerance

- liver Kiss1 expression (Gcgr; HFD and Lepr db/db mice): reduction
- liver gluconeogenic gene expression (Pparg1a, Src1, G6P, Pck1 mRNA) (Gcgr; HFD and Lepr db/db mice): reduction
- liver pCREB (Gcgr; HFD and Lepr db/db mice): corresponding reductions
- CREB occupancy of CRE 1 and 2 in the Kiss1 promoter (Gcgr; HFD and Lepr db/db mice, in vivo ChIP): reduces CREB occupancy
- basal glycemia and GT (Gcgr; HFD and Lepr db/db mice, single dose 50 mg/kg i.p. 60 min before ipGTT, versus GAC): improved basal glycemia as well as GT
- circulating plasma glucagon levels (Gcgr; HFD fed and Lepr db/db mice, fed state, 60 min after treatment): remained unchanged
Molecule: CCC(CC)C(=O)Nc1sc2c(c1C#N)CCC(C(C)(C)CC)C2 (stereo not drawn) [GAI, N-(3-Cyano-6-(1,1-dimethylpropyl)-4,5,6,7-tetrahydro-1-benzothien-2-yl)-2-ethylbutanamide]
